Measurements reported in patent US10457710B2, “Antimicrobial peptides, their variants and uses” (priority 2015, dated 2019).
Where a SMILES comes first, the peptide text is derived from it. [ ]: non-standard residue; d: D form.

What was measured:
Type in all cases: cell-based
C. glabrata = assay: MIC, clinical yeast strains; details: D-form peptide, concentrations tested 0.125 to 128 μg/ml
In short: (§1)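 Broth microdilution with inocula adjusted to 5.0×10^5 cfu/ml; peptides tested at 0.125 to 128 μg/ml and incubated at 37° C for 20 to 24 hours. Bacteria were grown in Mueller Hinton broth, yeasts in potato dextrose broth. MIC was the lowest concentration showing no visible growth.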

Candida albicans = assay: MIC, clinical yeast strains; details: D-form peptide, concentrations tested 0.125 to 128 μg/ml
In short: as §1

C. parapsilosis = assay: MIC, clinical yeast strains; details: D-form peptide, concentrations tested 0.125 to 128 μg/ml
In short: as §1

[1] = tested on: clinical strains of Acinetobacter baumannii; assay: MIC, microdilution, clinical strains; design: unit: μg/ml; details: 0.02% BSA, 0.2% acetic acid
Method: Minimum inhibition concetrations (MICs) were determined against Escherichia coli (ATCC 25922), Staphylococcus aureus (ATCC 25923), Klebsiella pneumoniae (ATCC 10031) and Pseudomonas aeruginosa (ATCC 27853). Also clinical strains of E. coli, K. pneumoniae, E. cloacae, P. aeruginosa, Serratia marcescens, Proteus mirabilis, S. pneumoniae, Acinetobacter baumannii, A. johnsonii and S. aureus were used for MICs assays. Additionally, clinical strains of yeast including Candida albicans, C. glabrata, C. parapsilosis and C. quillermondiae were used. The susceptibility of these microorganisms to Chain peptides were determined using micro broth dilution assay. Colonies of the respective microorganism from Muller Hinton (MH) agar plates incubated overnight were suspended in MH broth media and final concentration of microorganism was adjusted to 5.0×10^5 cfu/ml. An aliquot of 10 μl of each Chain peptide, or gentamicin, tetracycline as reference antibiotics were added in differing concentrations along with 90 μl of bacterial suspension to 96 well polypropylene plates and incubated at 37° C. for 20 to 24 hours. Concentrations of Chain peptides and reference antibiotics ranged from 0.125 to 128 μg/ml and the MICs were recorded as the lowest concentration with no visual growth of bacteria. Similarly, antifungal MICs were tested in Potato dextrose broth.
Clinical strains of yeasts including Candida albicans, C. glabrata, C. parapsilosis and C. quillermondiae were also tested with the 12 Chain peptides. The minimum inhibitory concentration (MICs) varied between these peptides and are presented in Tables 4a, 4b, 4c and 5a, 5b, 5c. Peptides Chain 105, 201 and 308 are broad spectrum antimicrobials with MICs between 0.5-32 μg/ml against all the bacteria and yeasts tested, except Serratia marcescens and Proteus mirabilis, against which the MICs were between 64-128 μg/ml. Peptide Chain 306 has narrow spectrum activity against E. coli at 1 μg/ml and for the rest of the bacterial strains at >32 μg/ml (FIG. 10c).

[2] = tested on: clinical strains of E. coli; assay: MIC, microdilution, clinical strains; details: microdilution, Muller Hinton broth-cation adjusted, 0.02% BSA, 0.2% acetic acid
In short: (§2)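 Overnight MH agar colonies were suspended in MH broth to 5.0×10^5 cfu/ml, mixed with serial peptide dilutions (0.125–128 μg/ml) and incubated at 37° C for 20 to 24 hours. Yeast MICs were run the same way in potato dextrose broth, and wells were scored visually.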

[3] = tested on: clinical strains of K. pneumoniae; assay: MIC, microdilution, clinical strains; details: 0.02% BSA, 0.2% acetic acid
In short: as §2

[4] = tested on: clinical strains of E. cloacae; assay: MIC, microdilution, clinical strains; details: 0.02% BSA, 0.2% acetic acid
In short: as §2

[5] = tested on: clinical strains of S. pneumoniae; assay: MIC, microdilution, clinical strains; details: 0.02% BSA, 0.2% acetic acid
In short: as §2

[6] = tested on: clinical strains of Proteus mirabilis; assay: MIC, microdilution, clinical strains; details: 0.02% BSA, 0.2% acetic acid
In short: as §2

[7] = tested on: clinical strains of P. aeruginosa; assay: MIC, microdilution, clinical strains; details: 0.02% BSA, 0.2% acetic acid
In short: as §2

[8] = tested on: clinical strains of S. aureus; assay: MIC, microdilution, clinical strains; details: 0.02% BSA, 0.2% acetic acid
In short: as §2

[9] = tested on: clinical strains of Serratia marcescens; assay: MIC, microdilution, clinical strains; details: 0.02% BSA, 0.2% acetic acid
In short: as §2

C. quillermondiae = assay: MIC, clinical yeast strains; details: clinical yeast strain 1; D-form peptide; concentrations tested 0.125 to 128 μg/ml
In short: as §1

CC[C@@H](C)[C@@H](NC(=O)[C@@H](Cc1c[nH]c2ccccc12)NC(=O)[C@H](N)CCCCN)C(=O)N[C@@H](C(=O)N[C@H](Cc1c[nH]c2ccccc12)C(=O)N[C@H](CCCNC(=N)N)C(=O)N[C@H](Cc1c[nH]c2ccccc12)C(=O)N[C@H](CCCNC(=N)N)C(=O)N[C@H](Cc1ccccc1)C(=O)N[C@H](CCCCN)C(=O)N[C@H](CCCNC(=N)N)C(=O)O)C(C)C [Chain201D] (H-[dK][dW][dI][dV][dW][dR][dW][dR][dF][dK][dR]-OH)
Minimum inhibitory concentration, C. glabrata strain 1 (C. glabrata; clinical yeast strain 1): 8 | Minimum inhibitory concentration, C. glabrata strain 2 (C. glabrata; clinical yeast strain 2): 8 | Minimum inhibitory concentration, C. glabrata strain 3 (C. glabrata; clinical yeast strain 3): 8 | Minimum inhibitory concentration, C. glabrata strain 4 (C. glabrata; clinical yeast strain 4): 64 | Minimum inhibitory concentration, Candida albicans strain 1 (Candida albicans; clinical yeast strain 1): 16 | Minimum inhibitory concentration, Candida albicans strain 2 (Candida albicans; clinical yeast strain 2): 8 | Minimum inhibitory concentration, Candida albicans strain 3 (Candida albicans; clinical yeast strain 3): 8 | Minimum inhibitory concentration, Candida albicans strain 4 (Candida albicans; clinical yeast strain 4): 16 | Minimum inhibitory concentration, Candida albicans strain 5 (Candida albicans; clinical yeast strain 5): 8 | Minimum inhibitory concentration, C. parapsilosis strain 1 (C. parapsilosis; clinical yeast strain 1): 8 | Minimum inhibitory concentration, C. parapsilosis strain 2 (C. parapsilosis; clinical yeast strain 2): 8 | Minimum inhibitory concentration, C. parapsilosis strain 3 (C. parapsilosis; clinical yeast strain 3): 8 | Minimum inhibitory concentration, C. parapsilosis strain 4 (C. parapsilosis; clinical yeast strain 4): 8 | Minimum inhibitory concentration ([1]; Acinetobacter baumannii strain 1, Muller Hinton broth-cation adjusted): 4 | Minimum inhibitory concentration ([1]; Acinetobacter baumannii strain 2, Muller Hinton broth-cation adjusted): 4 | Minimum inhibitory concentration ([1]; Acinetobacter baumannii strain 3, Muller Hinton broth-cation adjusted): 4 | Minimum inhibitory concentration ([1]; Acinetobacter baumannii strain 4, Muller Hinton broth-cation adjusted): 4 | Minimum inhibitory concentration ([1]; Acinetobacter baumannii strain 5, Muller Hinton broth-cation adjusted): 4 | Minimum inhibitory concentration ([2]; Escherichia coli strain 1): 16 | Minimum inhibitory concentration ([2]; Escherichia coli strain 2): 1 | Minimum inhibitory concentration ([2]; Escherichia coli strain 3): 1 | Minimum inhibitory concentration ([2]; Escherichia coli strain 4): 1 | Minimum inhibitory concentration ([2]; Escherichia coli strain 5): 1 | Minimum inhibitory concentration ([3]; Klebsiella pneumoniae strain 1, Muller Hinton broth-cation adjusted): 2 | Minimum inhibitory concentration ([3]; Klebsiella pneumoniae strain 2, Muller Hinton broth-cation adjusted): 2 | Minimum inhibitory concentration ([3]; Klebsiella pneumoniae strain 3, Muller Hinton broth-cation adjusted): 4 | Minimum inhibitory concentration ([3]; Klebsiella pneumoniae strain 4, Muller Hinton broth-cation adjusted): 4 | Minimum inhibitory concentration ([3]; Klebsiella pneumoniae strain 5, Muller Hinton broth-cation adjusted): 2 | Minimum inhibitory concentration ([4]; Enterobacter cloacae strain 1, Muller Hinton broth-cation adjusted): 1 | Minimum inhibitory concentration ([4]; Enterobacter cloacae strain 2, Muller Hinton broth-cation adjusted): 2 | Minimum inhibitory concentration ([4]; Enterobacter cloacae strain 3, Muller Hinton broth-cation adjusted): 2 | Minimum inhibitory concentration ([4]; Enterobacter cloacae strain 4, Muller Hinton broth-cation adjusted): 2 | Minimum inhibitory concentration ([4]; Enterobacter cloacae strain 5, Muller Hinton broth-cation adjusted): 1 | Minimum inhibitory concentration ([5]; Streptococcus pneumoniae strain 1, Muller Hinton broth-cation adjusted): 8 | Minimum inhibitory concentration ([5]; Streptococcus pneumoniae strain 2, Muller Hinton broth-cation adjusted): 4 | Minimum inhibitory concentration ([5]; Streptococcus pneumoniae strain 3, Muller Hinton broth-cation adjusted): 2 | Minimum inhibitory concentration ([5]; Streptococcus pneumoniae strain 4, Muller Hinton broth-cation adjusted): 4 | Minimum inhibitory concentration ([5]; Streptococcus pneumoniae strain 5, Muller Hinton broth-cation adjusted): 4 | Minimum inhibitory concentration ([6]; Proteus mirabilis strain 1, Muller Hinton broth-cation adjusted): >128 | Minimum inhibitory concentration ([6]; Proteus mirabilis strain 2, Muller Hinton broth-cation adjusted): 32 | Minimum inhibitory concentration ([6]; Proteus mirabilis strain 3, Muller Hinton broth-cation adjusted): 64 | Minimum inhibitory concentration ([6]; Proteus mirabilis strain 4, Muller Hinton broth-cation adjusted): >128 | Minimum inhibitory concentration ([6]; Proteus mirabilis strain 5, Muller Hinton broth-cation adjusted): >128 | Minimum inhibitory concentration ([7]; Pseudomonas aeruginosa strain 1, Muller Hinton broth-cation adjusted): 4 | Minimum inhibitory concentration ([7]; Pseudomonas aeruginosa strain 2, Muller Hinton broth-cation adjusted): 4 | Minimum inhibitory concentration ([7]; Pseudomonas aeruginosa strain 3, Muller Hinton broth-cation adjusted): 4 | Minimum inhibitory concentration ([7]; Pseudomonas aeruginosa strain 4, Muller Hinton broth-cation adjusted): 2 | Minimum inhibitory concentration ([7]; Pseudomonas aeruginosa strain 5, Muller Hinton broth-cation adjusted): 2 | Minimum inhibitory concentration ([8]; Staphylococcus aureus strain 1, Muller Hinton broth-cation adjusted): 1 | Minimum inhibitory concentration ([8]; Staphylococcus aureus strain 2, Muller Hinton broth-cation adjusted): 1 | Minimum inhibitory concentration ([8]; Staphylococcus aureus strain 3, Muller Hinton broth-cation adjusted): 1 | Minimum inhibitory concentration ([8]; Staphylococcus aureus strain 4, Muller Hinton broth-cation adjusted): 1 | Minimum inhibitory concentration ([8]; Staphylococcus aureus strain 5, Muller Hinton broth-cation adjusted): 1 | Minimum inhibitory concentration ([9]; Serratia marcescens strain 1, Muller Hinton broth-cation adjusted): 64 | Minimum inhibitory concentration ([9]; Serratia marcescens strain 2, Muller Hinton broth-cation adjusted): 64 | Minimum inhibitory concentration ([9]; Serratia marcescens strain 3, Muller Hinton broth-cation adjusted): 64 | Minimum inhibitory concentration ([9]; Serratia marcescens strain 4, Muller Hinton broth-cation adjusted): 64 | Minimum inhibitory concentration ([9]; Serratia marcescens strain 5, Muller Hinton broth-cation adjusted): 128 | Minimum inhibitory concentration, C. quillermondiae strain 1 (C. quillermondiae): 8
